The text below walks through data of ChEMBL document CHEMBL6153042, “Glycoconjugates of adefovir and tenofovir as asialoglycoprotein-mediated Anti-HBV prodrugs with enhanced liver targeting” (Eur J Med Chem, 2025).

Some results are limits rather than exact numbers.

The subject of data set [1] is LX-2. In words: Cytotoxicity against human LX2 cells at 5 uM incubated for 48 hrs by CCK8 assay. As to conditions: lx-2, 48 h. Format: toxicity, cell-based. (In general: Tetrazolium assays rely on reduction of a dye to a coloured formazan, in cell work by metabolically active cells.)
Data set [2] concerns Hepatitis B virus. Briefly: Antiviral activity against Hepatitis B virus infected in human HepG2.2.15 cells assessed as inhibition of HBV DNA replication incubated for 9 day. As to conditions: HepG2.2.15, 216 h.
Data set [3] concerns LX-2. Briefly: Cytotoxicity against human LX2 cells assessed as cell growth inhibition at 10 uM incubated for 48 hrs by CCK8 assay relative to control. Type of data set: toxicity, cell-based. As to conditions: lx-2, 48 h, 10 µM.
Data set [4] is described as follows: Toxicity in Kunming mouse assessed as effect on kidney weight at 100 to 200 mg/kg, iv once daily for 5 days. Type of data set: organism-based. The conditions noted are these: in vivo, 120 h, dose 100-200 mg/kg, time 5 day.
Data set [5] is described as follows: Toxicity in Kunming mouse assessed as effect on liver weight at 100 to 200 mg/kg, iv once daily for 5 days. Type of data set: organism-based. As to conditions: in vivo, 120 h, dose 100-200 mg/kg, time 5 day.
Data set [6] can be described thus: Toxicity in Kunming mouse assessed as effect on heart weight at 100 to 200 mg/kg, iv once daily for 5 days. Type of data set: organism-based. The conditions noted are these: in vivo, 120 h, dose 100-200 mg/kg, time 5 day.
Data set [7] is described as follows: Toxicity in Kunming mouse assessed as histopathological changes in heart at 200 mg/kg, iv once daily for 5 days by H and E staining based analysis. Format: organism-based. The conditions noted are these: in vivo, 120 h, time 5 day.
Data set [8] can be described thus: Toxicity in Kunming mouse assessed as maximum tolerated dose administered intravenously as once daily dose for 5 days. The conditions noted are these: in vivo, route iv, time 5 day.
A short description of data set [9]: Toxicity in Kunming mouse assessed as effect on heart size at 100 to 200 mg/kg, iv once daily for 5 days. Format: organism-based. The conditions noted are these: in vivo, 120 h, dose 100-200 mg/kg, time 5 day.
A short description of data set [10]: Toxicity in Kunming mouse assessed as effect on heart colour at 100 to 200 mg/kg, iv once daily for 5 days. Format: organism-based. The conditions noted are these: in vivo, 120 h, dose 100-200 mg/kg, time 5 day.
The test system of data set [11] is Hepatitis B virus. In words: Antiviral activity against Hepatitis B virus infected in human HepG2.2.15 cells assessed as inhibition of HBV DNA replication incubated for 10 day by qPCR analysis. The conditions noted are these: HepG2.2.15, 240 h. Format: functional, organism-based. In general terms: In qPCR the cycle at which signal appears reflects the starting amount.

Data set [12] can be described thus: Drug uptake in Sprague-Dawley rat liver at 10 mg/kg, iv measured after 1 to 6 hrs by LC-MS/MS analysis. Type of data set: ADME, organism-based. As to conditions: in vivo, time 1-6 hrs.
Data set [13] in a line: Toxicity in Kunming mouse assessed as effect on liver colour at 100 to 200 mg/kg, iv once daily for 5 days. Format: organism-based. The conditions noted are these: in vivo, 120 h, dose 100-200 mg/kg, time 5 day.
Data set [14] is described as follows: Toxicity in Kunming mouse assessed as histopathological changes in kidney at 200 mg/kg, iv once daily for 5 days by H and E staining based analysis. Type of data set: organism-based. The conditions noted are these: in vivo, 120 h, time 5 day.
Data set [15] is described as follows: Stability of compound in PBS buffer assessed as half-life by high-performance liquid chromatography. Type of data set: physicochemical.
Data set [16] can be described thus: Toxicity in Kunming mouse assessed as effect on kidney colour at 100 to 200 mg/kg, iv once daily for 5 days. Format: organism-based. As to conditions: in vivo, 120 h, dose 100-200 mg/kg, time 5 day.
Data set [17] is described as follows: Toxicity in Kunming mouse assessed as effect on liver size at 100 to 200 mg/kg, iv once daily for 5 days. Type of data set: organism-based. The conditions noted are these: in vivo, 120 h, dose 100-200 mg/kg, time 5 day.
Data set [18] in a line: Cytotoxicity against human HepG2.2.15 cells assessed as inhibition of cell proliferation by CCK8 assay. Type of data set: toxicity, cell-based, HepG2 2.2.15.
Data set [19] in a line: Selectivity index, the ratio of CC50 for human HepG2.2.15 cells to EC50 for antiviral activity against HBV in human HepG2.2.15 cells assessed as inhibition of HBV DNA replication. Type of data set: toxicity, cell-based. The conditions noted are these: read-out: Ratio CC50/EC50.
A short description of data set [20]: Toxicity in Kunming mouse assessed as effect on kidney size at 100 to 200 mg/kg, iv once daily for 5 days. Format: organism-based. As to conditions: in vivo, 120 h, dose 100-200 mg/kg, time 5 day.
Data set [21] can be described thus: Drug metabolism in plasma of Sprague-Dawley rat assessed as (1-(36-(((2R,3R,4S,5R,6R)-3-acetamido-4,5-dihydroxy-6-(hydroxymethyl)tetrahydro-2H-pyran-2-yl)oxy)-21,21-bis((3-((3-(5-(((2R,3R,4S,5R,6R)-3-acetamido-4,5-dihydroxy-6-(hydroxymethyl)tetrahydro-2H-pyran-2-yl)oxy)pentanamido)propyl)amino)-3-oxopropoxy)methyl)-16,19,26,32-tetraoxo-3,6,9,12,23-pentaoxa-15,20,27,31-tetraazahexatriacontyl)-1H-1,2,3-triazol-4-yl)methyl hydrogen ((((R)-1-(6-amino-9H-purin-9-yl)propan-2-yl)oxy)methyl)phosphonate formation measured at 2.1 mins by HPLC analysis. Type of data set: ADME, cell-free. As to conditions: 0.035 h.

Data set [22] in a line: Toxicity in Kunming mouse assessed as effect on body weight at 100 to 200 mg/kg, iv administered once daily for 5 days. As to conditions: in vivo, 120 h, dose 100-200 mg/kg, time 5 day. Format: organism-based.
The nature of data set [23]: Toxicity in Kunming mouse assessed as histopathological changes in liver at 200 mg/kg, iv once daily for 5 days by H and E staining based analysis. Type of data set: organism-based. As to conditions: in vivo, 120 h, time 5 day.
Data set [24] can be described thus: Drug metabolism in plasma of Sprague-Dawley rat assessed as (1-(36-(((2R,3R,4S,5R,6R)-3-acetamido-4,5-dihydroxy-6-(hydroxymethyl)tetrahydro-2H-pyran-2-yl)oxy)-21,21-bis((3-((3-(5-(((2R,3R,4S,5R,6R)-3-acetamido-4,5-dihydroxy-6-(hydroxymethyl)tetrahydro-2H-pyran-2-yl)oxy)pentanamido)propyl)amino)-3-oxopropoxy)methyl)-16,19,26,32-tetraoxo-3,6,9,12,23-pentaoxa-15,20,27,31-tetraazahexatriacontyl)-1H-1,2,3-triazol-4-yl)methyl hydrogen ((2-(6-amino-9H-purin-9-yl)ethoxy)methyl)phosphonate formation measured at 2.1 mins by HPLC analysis. Format: ADME, cell-free. The conditions noted are these: 0.035 h.

Consider `CC(C)OC(=O)[C@H](C)N[P@](=O)(CO[C@H](C)Cn1cnc2c(N)ncnc21)Oc1ccccc1` [TENOFOVIR ALAFENAMIDE], for which the Activity result with LX-2 [1] and in the data set with LX-2 [3] was “Toxic” throughout. Further, the EC50 (as a rule, the concentration at which the effect is half-maximal) in the data set with Hepatitis B virus [2] was found to be 12.2 nM.

Take `CC(=O)N[C@H]1[C@H](OCCCCC(=O)NCCCNC(=O)CCOCC(COCCC(=O)NCCCNC(=O)CCCCO[C@@H]2O[C@H](CO)[C@H](O)[C@@H](O)[C@H]2NC(C)=O)(COCCC(=O)NCCCNC(=O)CCCCO[C@@H]2O[C@H](CO)[C@H](O)[C@@H](O)[C@H]2NC(C)=O)NC(=O)CCC(=O)NCCOCCOCCOCCOCCn2cc(COP(=O)(CO[C@H](C)Cn3cnc4c(N)ncnc43)OCOC(=O)OC(C)C)nn2)O[C@H](CO)[C@H](O)[C@H]1O` (some centres not stated): the Activity entry in [4], in data set [5], in [6], in data set [7], in [9] and in data set [10] was “Non-toxic” each time. Also, the Activity entry with LX-2 [1] is reported as “Toxic”; in data set [13] it was “Non-toxic”; in data set [14], “Non-toxic”; in data set [16] it was “Non-toxic”; in [17] it was “Non-toxic”; in the data set with LX-2 [3], “Toxic”. Besides, the Activity result in [20], in data set [22] and in [23] was “Non-toxic” each time. The MTD (as a rule, the highest dose tested that stayed within the study's limit of toxicity) at 120 h in [8] is around 200 mg/kg. Besides, the EC50 with Hepatitis B virus [11] is 94.8 nM. In addition, the Drug uptake result in data set [12] is “Active”. Further, the half-life (in general, the time needed for the level to fall by half in the phase considered) in data set [15] was above 1440 min. The CC50 (usually the concentration at which the toxic effect on the cells reaches its halfway point) in data set [18] is above 100 µM. Besides, the selectivity ratio in data set [19] is above 1050. The Drug metabolism result in [21] is “metabolite_detected”.

Take `CC(=O)N[C@H]1[C@H](OCCCCC(=O)NCCCNC(=O)CCOCC(COCCC(=O)NCCCNC(=O)CCCCO[C@@H]2O[C@H](CO)[C@H](O)[C@@H](O)[C@H]2NC(C)=O)(COCCC(=O)NCCCNC(=O)CCCCO[C@@H]2O[C@H](CO)[C@H](O)[C@@H](O)[C@H]2NC(C)=O)NC(=O)CCC(=O)NCCOCCOCCOCCOCCn2cc(COP(=O)(COCCn3cnc4c(N)ncnc43)OCOC(=O)C(C)(C)C)nn2)O[C@H](CO)[C@H](O)[C@H]1O` (some centres not stated): the Activity result in data set [4], in data set [5], in [6], in data set [7], in [9] and in data set [10] was “Non-toxic” each time. Further, the Activity result in the data set on LX-2 [1] is “Toxic”; in data set [13], “Non-toxic”; in [14], “Non-toxic”; in data set [16] it was “Non-toxic”; in [17] it was “Non-toxic”; in the data set with LX-2 [3] it was “Toxic”. The Activity entry in data set [20], in data set [22] and in [23] was “Non-toxic” in each case. In addition, in [8], the MTD at 120 h was around 200 mg/kg. Moreover, the EC50 with Hepatitis B virus [11] stood at 98.3 nM. Moreover, in data set [12], the Drug uptake result is recorded as “Active”. In data set [24], the Drug metabolism entry is “metabolite_detected”. For the same compound, in [15], the half-life was above 1440 min. Further, the CC50 in [18] is above 100 µM. Also, the selectivity ratio in [19] was above 1020.
